Test results taken from patent US10889564B2, “Tetrahydroindazoles and medical uses thereof” (Genase Therapeutics B.V., priority 2015, dated 2021).

How the values were obtained:
[1] = system: p53 synthesis in ARN8 melanoma cells; experiment: p53 synthesis, 35S-Met pulse labelling and p53 immunoprecipitation; assay type: cell-based; conditions: 5 h treatment, 35S-Met 30 minutes, FIG. 3
Procedure: Incorporation of 35S-Met in the p53 immunoprecipitate was determined by autoradiography. This experiment was performed in duplicate (Exp. 1 and Exp. 2).

[2] = system: p21 expression in ARN8 melanoma cells; experiment: Levels of p53 and downstream targets (hdm2, pig3, p21) with nutlin-3; assay type: cell-based; conditions: 1 h then 2 μM nutlin-3 for 18 h, FIG. 4
Procedure: Levels of p53 and downstream targets hdm2, pig3 (band indicated by arrow) and p21 were determined. Levels of gapdh were used to monitor protein loading. Pig3 is a known pro-apoptotic protein.

[3] = system: ARN8 melanoma cells; experiment: Sulforhodamine B assay of cancer cell growth and/or viability; assay type: cell-based; conditions: 72 hours; for viability at 2 µM: ARN8
Procedure: ARN8 melanoma cells are seeded at a density of 500 cells per well of a 96 well plate. Following 24 hours of incubation, cells are treated with increasing concentrations of the compound of Example 8 in the absence or presence of excess uridine (100 micromolar). Cells are incubated for 72 hours after which the growth medium is removed from the cells and replaced by […] of 1× sterile PBS and 50 μL of 40% trichloroacetic acid in dH2O. Samples are incubated at 4° C. for 1 h to fix the cells. The plate is then washed with 3 changes of water with all liquid allowed to drain from the plate. […] of 0.1% sulforhodamine B in 1% acetic acid in H2O is added to each well and incubated for 30 minutes. Excess dye is washed out with three changes of 1% acetic acid in H2O with all liquid allowed to drain from the plate. The remaining dye is solubilized in 100 microliters of 10 mM un-buffered basic Tris per well and absorbance read at 570 nm.

[4] = system: U2OS wtTP53, sarcoma; experiment: WST-1 assay; assay type: cell-based; conditions: 72 hours
Procedure: (§1) Adherent cell lines were cultured overnight prior to the addition of the compound of Example 1, whereas non-adherent cell lines were treated immediately after seeding. TP53 status in each cell line is indicated. All cells were grown in 10% FBS. p53 wild type or mutant status (wtTP53 or mtTP53) and tumor cell line origin are indicated. The results obtained are shown below and in FIG. 10.

[5] = system: RKO wtTP53, colon cancer; experiment: WST-1 assay; assay type: cell-based; conditions: 72 hours
Procedure: as §1

[6] = system: HT29 mtTP53, colon cancer; experiment: WST-1 assay; assay type: cell-based; conditions: 72 hours
Procedure: as §1

[7] = system: A375 wtTP53, melanoma; experiment: WST-1 assay; assay type: cell-based; conditions: 72 hours
Procedure: as §1

[8] = system: NB4 mtTP53, leukemia; experiment: WST-1 assay; assay type: cell-based; conditions: 72 hours
Procedure: as §1

[9] = system: L428 mtTP53, lymphoma; experiment: WST-1 assay; assay type: cell-based; conditions: 72 hours
Procedure: as §1

[10] = system: K562 mtTP53, leukemia; experiment: WST-1 assay; assay type: cell-based; conditions: 72 hours
Procedure: as §1

[11] = system: MV4-11 wtTP53, leukemia; experiment: WST-1 assay; assay type: cell-based; conditions: 72 hours
Procedure: as §1

[12] = system: HCT116 wtTP53, colon cancer; experiment: WST-1 assay; assay type: cell-based; conditions: 72 hours
Procedure: as §1

[13] = system: Ramos mtTP53, lymphoma; experiment: WST-1 assay; assay type: cell-based; conditions: 72 hours
Procedure: as §1

[14] = system: JVM2 wtTP53, lymphoma; experiment: WST-1 assay; assay type: cell-based; conditions: 72 hours
Procedure: as §1

[15] = system: A431 mtTP53, skin cancer; experiment: WST-1 assay; assay type: cell-based; conditions: 72 hours
Procedure: as §1

[16] = system: ARN8s wtTP53, melanoma; experiment: WST-1 assay; assay type: cell-based; conditions: 72 hours
Procedure: TP53 status in each cell line is indicated. All cells were grown in 10% FBS. p53 wild type or mutant status (wtTP53 or mtTP53) and tumor cell line origin are indicated.

[17] = system: uridine uptake in ARN8 cells; experiment: Tritiated uridine uptake; assay type: cell-based; conditions: 15 min preincubation, 5,6-3H-Uridine 60 sec, FIG. 7
Procedure: ARN8 cells were incubated with increasing concentrations of nilotinib and tritiated uridine. The amount of tritium label in cells was determined by scintillation counting. 200 000 ARN8 cells/well were seeded on 6-well plates. 24 h post-seeding, the cells were rinsed twice with transport buffer, pH 7.4 (20 mM Tris/HCl, 130 mM NaCl, 3 mM K2HPO4, 1 mM MgCl2, 5 mM Glucose) and then incubated for 15 min at 37° C. with compounds (or vehicle) diluted in transport buffer. 5,6-3H-Uridine (PerkinElmer, #NET367001MC) was added to a final concentration of 4 μCi/mL for 60 sec, and then removed with 5 quick washes with 1 mM ice-cold unlabelled uridine (Sigma, #U3003). Samples (in triplicate) were harvested in 10% SDS (Sigma) and transferred to a flexible 24-well microplate (Perkin Elmer, #1450-402). Optiphase Supermix scintillation buffer (PerkinElmer, #1200-439) was added and the counts per minute measured for 3 min.

[18] = target: human dihydroorotate dehydrogenase (DHODH) (Homo sapiens (Human), UniProt Q02127); experiment: DHODH enzyme assay, Assay A (DCIP absorbance); assay type: biochemical; conditions: 6 nM recombinant human DHODH
Procedure: Inhibition of human dihydroorotate dehydrogenase (DHODH) by example compounds as described herein was determined using one of two assays as described below.
DHODH enzyme assays were performed with 6 nM recombinant human DHODH (purified essentially as described by Walse et. al., Biochemistry, 47, 8929-8936 (2008)). The reaction mixture consisted of 1 mM DL-dihydroorotic acid (#D7003, Sigma-Aldrich), 100 μM 3,4-dimethoxy-5-methyl-p-benzoquinone (#D9150, Sigma-Aldrich), and 100 μM 2,6-dichlorophenolindophenol sodium salt (DCIP) (#D1878, Sigma-Aldrich) in enzyme buffer (50 mM Tris-HCl pH 8.0, 0.1% Triton X-100, 150 mM KCl). A stock solution of 20 mM DCIP was prepared in enzyme buffer and filtered through Whatman paper just before use. Loss in absorbance by chromogen DCIP was measured at 595 nm at RT every 3 min for an hour.

Chain of human dihydroorotate dehydrogenase (DHODH) (Q02127 29-395): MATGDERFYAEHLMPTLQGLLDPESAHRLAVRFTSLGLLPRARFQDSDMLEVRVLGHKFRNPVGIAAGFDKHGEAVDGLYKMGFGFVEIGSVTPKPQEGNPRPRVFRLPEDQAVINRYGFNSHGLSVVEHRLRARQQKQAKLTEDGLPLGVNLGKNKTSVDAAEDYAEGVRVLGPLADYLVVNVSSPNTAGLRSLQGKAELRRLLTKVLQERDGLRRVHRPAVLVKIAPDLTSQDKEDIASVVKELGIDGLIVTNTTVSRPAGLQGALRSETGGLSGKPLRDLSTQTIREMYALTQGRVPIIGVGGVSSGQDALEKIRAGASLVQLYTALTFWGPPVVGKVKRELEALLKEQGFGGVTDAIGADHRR

O=C(NC1CCCc2c1cnn2-c1ccccc1F)c1ccccn1 (stereo not shown) [Example 1, N-(1-(2-Fluorophenyl)-4,5,6,7-tetrahydro-1H-indazol-4-yl)picolinamide]
p53 synthesis [1]: increases p53 synthesis
nutlin-3 induced p21 expression [2]: Loss of nutlin-3 induced p21 expression
viability at 2 µM ([3]; absence of excess uridine): 53%
metabolically active cells, percentage relative to the vehicle (DMSO) control ([4]; 1.23 μM): 98.88%
metabolically active cells, percentage relative to the vehicle (DMSO) control ([4]; 3.70 μM): 70.03%
metabolically active cells, percentage relative to the vehicle (DMSO) control ([4]; 11.11 μM): 51.63%
metabolically active cells, percentage relative to the vehicle (DMSO) control ([4]; 33.30 μM): 50.16%
metabolically active cells, percentage relative to the vehicle (DMSO) control ([5]; 1.23 μM): 83.37%
metabolically active cells, percentage relative to the vehicle (DMSO) control ([5]; 3.70 μM): 42.62%
metabolically active cells, percentage relative to the vehicle (DMSO) control ([5]; 11.11 μM): 36.36%
metabolically active cells, percentage relative to the vehicle (DMSO) control ([5]; 33.30 μM): 29.16%
metabolically active cells, percentage relative to the vehicle (DMSO) control ([6]; 1.23 μM): 70.23%
metabolically active cells, percentage relative to the vehicle (DMSO) control ([6]; 3.70 μM): 23.19%
metabolically active cells, percentage relative to the vehicle (DMSO) control ([6]; 11.11 μM): 25.66%
metabolically active cells, percentage relative to the vehicle (DMSO) control ([6]; 33.30 μM): 12.11%
metabolically active cells, percentage relative to the vehicle (DMSO) control ([7]; 1.23 μM): 85.95%
metabolically active cells, percentage relative to the vehicle (DMSO) control ([7]; 3.70 μM): 50.62%
metabolically active cells, percentage relative to the vehicle (DMSO) control ([7]; 11.11 μM): 45.86%
metabolically active cells, percentage relative to the vehicle (DMSO) control ([7]; 33.30 μM): 32.67%
metabolically active cells, percentage relative to the vehicle (DMSO) control ([8]; 1.23 μM): 79.47%
metabolically active cells, percentage relative to the vehicle (DMSO) control ([8]; 3.70 μM): 65.73%
metabolically active cells, percentage relative to the vehicle (DMSO) control ([8]; 11.11 μM): 42.77%
metabolically active cells, percentage relative to the vehicle (DMSO) control ([8]; 33.30 μM): 36.19%
metabolically active cells, percentage relative to the vehicle (DMSO) control ([9]; 1.23 μM): 67.78%
metabolically active cells, percentage relative to the vehicle (DMSO) control ([9]; 3.70 μM): 33.84%
metabolically active cells, percentage relative to the vehicle (DMSO) control ([9]; 11.11 μM): 32.76%
metabolically active cells, percentage relative to the vehicle (DMSO) control ([9]; 33.30 μM): 34.80%
metabolically active cells, percentage relative to the vehicle (DMSO) control ([10]; 1.23 μM): 63.91%
metabolically active cells, percentage relative to the vehicle (DMSO) control ([10]; 3.70 μM): 57.69%
metabolically active cells, percentage relative to the vehicle (DMSO) control ([10]; 11.11 μM): 55.28%
metabolically active cells, percentage relative to the vehicle (DMSO) control ([10]; 33.30 μM): 53.35%
metabolically active cells, percentage relative to the vehicle (DMSO) control ([11]; 1.23 μM): 60.26%
metabolically active cells, percentage relative to the vehicle (DMSO) control ([11]; 3.70 μM): 36.85%
metabolically active cells, percentage relative to the vehicle (DMSO) control ([11]; 11.11 μM): 19.73%
metabolically active cells, percentage relative to the vehicle (DMSO) control ([11]; 33.30 μM): 15.79%
metabolically active cells, percentage relative to the vehicle (DMSO) control ([12]; 1.23 μM): 75.69%
metabolically active cells, percentage relative to the vehicle (DMSO) control ([12]; 3.70 μM): 50.13%
metabolically active cells, percentage relative to the vehicle (DMSO) control ([12]; 11.11 μM): 28.40%
metabolically active cells, percentage relative to the vehicle (DMSO) control ([12]; 33.30 μM): 14.51%
metabolically active cells, percentage relative to the vehicle (DMSO) control ([13]; 1.23 μM): 87.94%
metabolically active cells, percentage relative to the vehicle (DMSO) control ([13]; 3.70 μM): 54.16%
metabolically active cells, percentage relative to the vehicle (DMSO) control ([13]; 11.11 μM): 42.35%
metabolically active cells, percentage relative to the vehicle (DMSO) control ([13]; 33.30 μM): 40.94%
metabolically active cells, percentage relative to the vehicle (DMSO) control ([14]; 1.23 μM): 86.30%
metabolically active cells, percentage relative to the vehicle (DMSO) control ([14]; 3.70 μM): 75.36%
metabolically active cells, percentage relative to the vehicle (DMSO) control ([14]; 11.11 μM): 44.68%
metabolically active cells, percentage relative to the vehicle (DMSO) control ([14]; 33.30 μM): 38.31%
metabolically active cells, percentage relative to the vehicle (DMSO) control ([15]; 1.23 μM): 76.99%
metabolically active cells, percentage relative to the vehicle (DMSO) control ([15]; 3.70 μM): 52.31%
metabolically active cells, percentage relative to the vehicle (DMSO) control ([15]; 11.11 μM): 36.84%
metabolically active cells, percentage relative to the vehicle (DMSO) control ([15]; 33.30 μM): 27.93%
metabolically active cells, percentage relative to the vehicle (DMSO) control ([16]; 1.23 μM): 68.69%
metabolically active cells, percentage relative to the vehicle (DMSO) control ([16]; 3.70 μM): 40.86%
metabolically active cells, percentage relative to the vehicle (DMSO) control ([16]; 11.11 μM): 35.13%

Cc1cn(-c2cc(NC(=O)c3ccc(C)c(Nc4nccc(-c5cccnc5)n4)c3)cc(C(F)(F)F)c2)cn1 [nilotinib]
uridine uptake [17]: blocks uridine uptake

O=C(NC1CCCc2c1cnn2-c1ccccc1F)c1onc2c1CCCC2 (stereo not shown) [Example 8, N-(1-(2-fluorophenyl)-4,5,6,7-tetrahydro-1H-indazol-4-yl)-4,5,6,7-tetrahydrobenzo[c]isoxazole-3-carboxamide]
IC50 [18]: 0.032 µM
ARN8 melanoma cell growth and/or viability ([3]; absence of excess uridine, FIG. 2): reduces ARN8 melanoma cell growth and/or viability
effect on ARN8 melanoma cell growth and/or viability with excess uridine ([3]; excess uridine (100 micromolar), FIG. 2): largely prevented by the addition of excess uridine
viability at 2 µM ([3]; absence of excess uridine): 48%

COC(=O)c1ccc(C(=O)NC2CCCc3c2cnn3-c2ccccc2F)nc1 (stereo not shown) [Example 7, Methyl 6-({[1-(2-fluorophenyl)-4,5,6,7-tetrahydro-1H-indazol-4-yl]amino}carbonyl)nicotinate]
IC50 [18]: > 10 µM
viability at 2 µM ([3]; absence of excess uridine): 28%
